The values below come from PubChem BioAssay (NCI).

What all share (experiment): NCI anticancer screen, dose series, 48 h
The subject of test [1] is SF-268 CNS.
The subject of test [2] is SF-539 CNS.
For test [3], the system named is SN12C renal.
The subject of test [4] is NCI-H23 lung.
The test system of test [5] is COLO 205 colon.
For test [6], the system named is PC-3 prostate.
Test [7] relates to ACHN renal.
The subject of test [8] is OVCAR-8 ovarian.
The subject of test [9] is UACC-62 melanoma.
The subject of test [10] is T-47D breast.

Molecules are shown by their SMILES. Values joined by “and” are separate entries in the source; they are usually repeats but may differ in a detail not shown here. Equal entries are not always repeated.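 Test compounds were applied to cells in 96-well plates for 48 hours at 5 doses. The concentration for 50% growth inhibition is given as GI50. TGI is the concentration that stops growth completely.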

With `COC1/C=C/OC2(C)Oc3c(C)c(O)c4c(O)c(c(/C=N/N(c5ccccc5)c5ccccc5)c(O)c4c3C2=O)NC(=O)C(C)=C/C=C/C(C)C(O)C(C)C(O)C(C)C(OC(C)=O)C1C` (stereo not drawn), the GI50 in test [1] was 1.93 µM; in test [2], 1.44 µM; in test [3] it was 1.81 µM; in [4] it was 1.96 µM; in [5], 1.73 µM; in test [6] it was 1.27 µM. In addition, the GI50 in test [7] was 1.75 µM; in [8], 1.8 µM; in [9], 0.992 µM; in test [10], 1.82 µM. Also, the TGI in [1] stood at 8.51 µM; in [2], 4.7 µM; in [3], 7.46 µM; in test [4] it was 8.98 µM; in test [5], 6.23 µM; in [6] it was 4.95 µM. In addition, the TGI in test [7] was 7.13 µM; in test [8], 7.97 µM; in [9], 2.58 µM; in [10], 7.87 µM.

For the molecule `COc1ccc(-c2nsc3c2NC(=O)CC3c2cccc(F)c2)cc1` (stereo not drawn), the GI50 in test [1] was 6.86 µM; in [2], 5.19 µM; in [3], 5.2 µM; in [4], 5.02 µM; in test [5], 2.95 µM; in test [6] it was 4.93 µM. Moreover, the GI50 in [7] is 5.95 µM; in test [8] it was 7.54 µM; in test [9], 4.35 µM; in test [10], 4.81 µM. Further, the TGI in [1], in [2], in [3], in test [4], in test [5] and in [6] was above 100 µM in each case. Besides, the TGI in [7], in test [8], in test [9] and in test [10] was above 100 µM in each case.

With `O=C1/C=C/[C@@H](O)[C@@H]2C[C@@H](O)C[C@H]2/C=C/CCC[C@H](CCc2ccc(NC(=S)Nc3ccc4c(c3)C(=O)OC43c4ccc(O)cc4Oc4cc(O)ccc43)cc2)O1`, the GI50 in [1] was 0.405 µM; in test [2], 0.724 µM; in test [3], 2.17 µM; in [4], 0.439 µM; in test [5], 0.208 µM; in [6], 0.516 µM. The GI50 in test [7] was 0.803 µM; in [8], 0.401 µM; in test [9] it was 0.397 µM; in [10], 1.39 µM. For the same molecule, the TGI was above 100 µM in [1]; above 100 µM in [2]; above 100 µM in [3]; above 74 µM in test [4]; 0.384 µM in test [5]; above 100 µM in test [6]. Also, the TGI was above 100 µM in [7], above 100 µM in test [8], 30.7 µM in test [9] and 76 µM in test [10].

Take `Cc1cnc(-c2ccc(-c3ccc(NC(=O)Nc4cccc(C(F)(F)F)c4)cc3F)c3c2C(=O)NC3)[nH]1`: the GI50 is 11.4 µM in [1]; 0.251 µM in test [2]; 0.304 µM in test [3]; 4.42 µM in test [4]; 0.0469 µM in test [5]; 15.7 µM in [6]. Further, the GI50 is 1.97 µM in test [7], 14.6 µM in test [8], 9.61 µM in test [9] and 12.7 µM in [10]. Also, the TGI in test [1] was above 48.1 µM; in test [2], 22.7 µM; in test [3] it was 35.3 µM; in test [4] it was 33.5 µM; in test [5], 20.2 µM; in [6] it was above 50.6 µM. Also, the TGI was above 52.8 µM in test [7], above 57.8 µM in test [8], 35.5 µM in test [9] and 33.5 µM in test [10].

For the molecule `COc1ccc2[nH]cc(C3(c4c[nH]c5ccc(OC)cc45)C(=O)Nc4ccc(Cl)cc43)c2c1`, the GI50 in test [1] is 4.81 µM; in [2] it was 4.39 µM; in test [3], 4.34 µM; in [4], 3.03 µM; in [5], 1.88 µM; in [6], 3.96 µM. Moreover, the GI50 was 3.71 µM in [7], 3.36 µM in [8], 3.61 µM in test [9] and 4.93 µM in test [10]. For the same molecule, the TGI in [1] is 57.9 µM; in test [2] it was above 100 µM; in test [3] it was 18.6 µM; in test [4], 23.2 µM; in test [5], 3.53 µM; in test [6], 38.4 µM. Besides, the TGI in [7] was 21.9 µM; in [8], 18.7 µM; in [9], above 100 µM; in test [10], above 100 µM.

For the molecule `COC(=O)c1cc2c([nH]c3ccccc32)c(-c2nc3ccccc3cc2CO)n1`, the GI50 was above 100 µM in test [1]; 47 µM in [2]; above 100 µM in test [3]; above 100 µM in test [4]; above 100 µM in test [5]; above 100 µM in test [6]. Also, the GI50 is 30 µM in [7], above 100 µM in [8], above 100 µM in test [9] and above 100 µM in [10]. The TGI in [1], in [2], in test [3], in test [4], in test [5] and in [6] was above 100 µM in each case. Besides, the TGI in test [7], in [8], in test [9] and in [10] was above 100 µM throughout.

Consider `CC(C)c1ccc(C(O)(C(=O)O)c2ccc(C(C)C)cc2)cc1`, for which the TGI in test [1] is above 100 µM; in test [2], above 100 µM; in test [3], above 100 µM; in test [4], above 100 µM; in test [5], above 100 µM; in test [6], 51.1 µM. For the same molecule, the TGI in test [7], in [8], in test [9] and in [10] was above 100 µM throughout.

With `CCCCNP1(NCCCC)=NP(NCCCC)(NCCCC)=NP(NCCCC)(NCCCC)=NP(NCCCC)(NCCCC)=N1`, the GI50 in test [1] was 1.53 µM; in [2], 2.89 µM; in test [3] it was 0.331 µM; in [4] it was 0.271 µM; in test [5] it was 0.301 µM; in test [6], 0.24 µM. In addition, the GI50 is 2.5 µM in test [7], 1.98 µM in [8], 0.567 µM in test [9] and 0.26 µM in [10]. The TGI in test [1] came to 21.2 µM; in test [2], 8.55 µM; in test [3], 12.5 µM; in test [4], 3.2 µM; in [5], 0.848 µM; in [6] it was 12.4 µM. Moreover, the TGI in test [7] was above 32.9 µM; in test [8] it was 17.4 µM; in test [9], 5.91 µM; in test [10], 3.07 µM.

Take `C=C1C(=O)O[C@H]2[C@H]1CC/C(CNC(=O)C(C)c1ccc(CC(C)C)cc1)=C\CC[C@@]1(C)O[C@@H]21` (stereo partly drawn): the GI50 is 1.74 µM in [1]; 1.58 µM in [2]; 1.63 µM in [3]; 1.67 µM in test [4]; 1.93 µM in [5]; 1.77 µM in test [6]. Further, the GI50 in test [7] was 1.45 µM; in [8] it was 1.88 µM; in test [9] it was 1.67 µM; in test [10], 1.78 µM. Moreover, the TGI in [1] was determined as 3.58 µM; in [2], 3.07 µM; in test [3], 3.26 µM; in test [4] it was 3.32 µM; in [5] it was 3.83 µM; in test [6], 3.82 µM. Further, the TGI stood at 2.76 µM in test [7], 5.96 µM in test [8], 3.38 µM in [9] and 4.79 µM in test [10].

For `CC(=O)OCC1OC([S-])C(OC(C)=O)C(OC(C)=O)C1OC(C)=O.[Au+].c1ccc(CN2[CH-]N(Cc3ccccc3)C(c3ccccc3)=C2c2ccccc2)cc1`, the GI50 was 2.43 µM and 0.458 µM in test [1]; 2.96 µM and 0.855 µM in [2]; 1.93 µM and 0.408 µM in [4]; 3.59 µM and 0.881 µM in [5]; 1.87 µM and 0.674 µM in [7]; 3.17 µM and 0.479 µM in [8]. Also, the GI50 was 2.15 µM and 0.249 µM in [9]; 1.72 µM and 0.417 µM in test [10]. Besides, the TGI in test [1] is 6.11 µM and 1.78 µM; in test [2], 10.4 µM and 3.81 µM; in test [3] it was 5.08 µM and 1.18 µM; in test [4], 4.86 µM and 3.11 µM; in test [5], 14.3 µM and 2.27 µM; in test [6], 4.73 µM and 1.17 µM. Besides, the TGI in test [7] was 3.62 µM and 2.72 µM; in test [8], 11.6 µM and 4.44 µM; in test [9], 5.62 µM and 1.14 µM; in [10], 3.81 µM and 2.75 µM.

In the case of `N#Cc1ccc(C(=O)c2cnn(-c3ccc(F)cc3)c2N)cc1`, the GI50 in test [1], in [2], in test [3], in test [4], in [5] and in [6] was above 25 µM each time. Moreover, the GI50 in test [7], in test [8], in test [9] and in test [10] was above 25 µM throughout. Besides, the TGI in [1], in [2], in test [3], in test [4], in test [5] and in test [6] was above 25 µM each time. Also, the TGI in test [7], in [8], in test [9] and in test [10] was above 25 µM in each case.
